Results published in patent US20060004036A1, “Sigma-2 receptor agonists and their use in the treatment of HIV infection” (The United States of America, per Secy. DHHS, NIH, priority 2003, published 2006).

Columns and labels:
[1] = tested on: HIV; assay: HIV infectivity assay, luciferase activity in CEMX174 cells with SIV LTR-driven luciferase gene; type: cell-based; conditions: for inhibition of HIV infection (in words): lymphocytes incubated 24 hours with drug, washed, exposed to HIV for 24 hours, luciferase activity (FIG. 2)
Method: CEMX174 cells transfected with a luciferase gene driven by the Simian Immunodeficiency Virus (SIV) LTR are used in infectivity assays. Cells are then treated with sigma-2 receptor agonists at various concentrations followed by incubation in the presence or absence (control) of HIV. Luciferase activity quantifies HIV replication.
This inhibition of HIV infection occurs at doses within the range of concentrations of CB-184 and haldol that produce reductions in membrane sphingomyelin, as shown above in FIG. 1. In these experiments, lymphocytes transfected with a luciferease gene driven by the Simian Immunodeficiency virus (SIV)LTR were incubated for 24 hours in the presence of the indicated dose of sigma-2 receptor agonist. The drugs were then removed, cells were washed and exposed to HIV for 24 hours. Cells were then lysed and luciferase activity quantified. Luciferase activity indicates the level of infectivity of the HIV virions. All of the compounds evaluated with sigma-2 agonist activity inhibited HIV infection at concentrations that were non-toxic to lymphocytes.

[2] = tested on: H9 lymphocytes; assay: Membrane sphingomyelin levels in [3H]palmitic acid-labeled H9 lymphocytes; type: cell-based; conditions: H9 cells, 24 hours incubation (FIG. 1)
Method: Methods: Membrane sphingomyelin is metabolically labeled in H9 lymphocytes by incubating the cells with [^3H] palmitic acid in supplemented RPMI media for 48 h. Labeled media is removed and cells are incubated in the presence or absence of various concentrations of the sigma-2 receptor agonists CB-184 or haldol (haloperidol) for 24 hours. Total lipids are extracted and the dried organic layer is chromatographed on Silica G-60 plates. Sphingomyelin spots are scraped and quantified by liquid scintillation counting.

Row | SMILES | inhibition of HIV infection (in words) [1] | effect of the antagonist on the ability of CB-184 to inhibit HIV infection of lymphocytes (in words) ([1]; with CB-184 at various doses and different HIV viral titres (FIG. 3, 4, 5)) | reduction of control levels of membrane sphingomyelin ([2]; 0.3 μM) | reduction of control levels of membrane sphingomyelin ([2]; 1 μM) [%]
1 | CN(CCc1ccc(Cl)c(Cl)c1)[C@H]1CCCC[C@H]1N1CCCC1 (relative stereo) [BD737, 1S,2R-(+)-cis-N-[2-(3,4-dichlorophenyl)ethyl]-N-methyl-2-(1-pyrrolidinyl)-cyclohexylamine] | dose-dependent inhibition | – | – | –
2 | c1ccc(CCN2CCCCC2)cc1 [AC-927, N-phenethylpiperidine, reference compound] | – | reversed | – | –
3 | CN1CC[C@]2(c3cccc(O)c3)CC(=O)/C(=C/c3ccccc3)[C@H]1C2 [CB-64D] | dose-dependent inhibition | – | – | –
4 | CN1CC[C@]2(c3cccc(O)c3)CC(=O)/C(=C/c3ccc(Cl)c(Cl)c3)[C@H]1C2 [CB-184, (+)-1R,5R-E-8-(3,4-dichlorobenzylidene)-5-(3-hydroxyphenyl)-2-methylmorphan-7-one] | dose-dependent inhibition | – | about 39% | ~45
5 | O=C(CCCN1CCC(O)(c2ccc(Cl)cc2)CC1)c1ccc(F)cc1 [haldol, haloperidol, reference compound] | dose-dependent inhibition | – | – | –
